Values belong to the molecule of their own block, whether it stands above or below them.
Legend:
[1] = tested on: Human immunodeficiency virus 1; assay: Antiviral activity against HIV 1 NL4-3 infected in human MT2 cells assessed as inhibition of replication by XTT assay; assay type: functional, organism-based; details: Human immunodeficiency virus 1, NL4-3, MT2
[2] = tested on: Human immunodeficiency virus 1; assay: Antiviral activity against recombinant HIV 1 expressing luciferase and envelope glycoprotein of HIV-1 YU-2 infected in Cf2Th-CCR5 cells assessed as inhibition of viral infection by measuring luciferase activity; assay type: functional, organism-based; details: Human immunodeficiency virus 1, Cf2Th-CCR5
[3] = tested on: Human immunodeficiency virus 1; assay: Antiviral activity against HIV 1 NL4-3 infected in human C8166 cells expressing LTR-luciferase reporter gene assessed as inhibition of viral replication pretreated with virus for 1.5 hrs followed by compound addition and measured after 3 days; assay type: functional, organism-based; details: Human immunodeficiency virus 1, NL4-3, C8166
[4] = Modulation of capsid disassembly in HIV 1 NL4-3 infected in human C8166 cells expressing LTR-luciferase reporter gene assessed as inhibition of viral protein disassembly; assay type: functional, cell-based; details: Human immunodeficiency virus 1, NL4-3, C8166
[5] = tested on: Human immunodeficiency virus 1; assay: Antiviral activity against HIV 1 in human C8166 cells expressing LTR-luciferase reporter gene assessed as inhibition of viral replication incubated for 72 hrs by multiple-cycle viral replication assay; assay type: functional, organism-based; details: Human immunodeficiency virus 1, C8166, 72 h
[6] = tested on: Human immunodeficiency virus 1; assay: Antiviral activity against HIV 1 infected in human SUP-T1 cells assessed as inhibition of viral replication by measuring luciferase activity after 72 hrs by steady glo reagent based luminescence assay; assay type: functional, organism-based; details: Human immunodeficiency virus 1, SUP-T1, 72 h
[7] = tested on: Human immunodeficiency virus 1; assay: Antiviral activity against HIV 1 NL4-3; assay type: functional, organism-based; details: Human immunodeficiency virus 1, NL4-3
[8] = tested on: Human immunodeficiency virus 1; assay: Antiviral activity against HIV 1 NL4-3 infected in […] MT2 cells assessed as reduction in luciferase activity incubated for 4 to 5 days; assay type: functional, organism-based; details: Human immunodeficiency virus 1, NL4-3, MT2
[9] = Metabolic stability in C57Bl/6 mouse liver microsomes assessed as half life by LC-MS/MS analysis; assay type: ADME, Microsome
[10] = tested on: Human immunodeficiency virus 1; assay: Antiviral activity against HIV 1; assay type: functional, organism-based
[11] = tested on: Human immunodeficiency virus 2; assay: Antiviral activity against HIV 2; assay type: functional, organism-based
[12] = tested on: TZM; assay: Cytotoxicity against human TZM-bl cells assessed as reduction in cell viability incubated for 1 day by CytoTox-Glo stain based assay; assay type: functional; details: 24 h
[13] = tested on: Human immunodeficiency virus 1; assay: Antiviral activity against HIV 1 infected in human TZM-bl cells by MTT assay; assay type: functional, organism-based; details: Human immunodeficiency virus 1, TZM-bl
[14] = tested on: Human immunodeficiency virus 1; assay: Antiviral activity against HIV 1 infected in human PBMC cells assessed as viral inhibition incubated for 7 days with media replacement for every 3 days by ELISA; assay type: functional, organism-based; details: Human immunodeficiency virus 1, PBMC
[15] = tested on: Human immunodeficiency virus 1; assay: Antiviral activity against HIV 1 infected in HeLa cells transfected with CD4,[…] and LacZ gene assessed as reduction in viral replication measured after 72 hrs by ELISA; assay type: functional, organism-based; details: Human immunodeficiency virus 1, HeLa
[16] = target: Structural capsid protein (Human immunodeficiency virus 1, UniProt Q76129); assay: Inhibition of HIV 1 capsid CTD dimerization incubated for 5 hrs by TR-FRET assay
Chain of Structural capsid protein (Q76129 whole entry): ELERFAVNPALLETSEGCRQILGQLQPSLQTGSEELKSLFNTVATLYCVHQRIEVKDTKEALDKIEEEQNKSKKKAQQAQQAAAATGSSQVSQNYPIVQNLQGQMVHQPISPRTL

[17] = tested on: Human immunodeficiency virus 1; assay: Antiviral activity against HIV 1 infected in […] MT4 cells; assay type: functional, organism-based; details: Human immunodeficiency virus 1, MT4
[18] = tested on: MT4; assay: Cytotoxicity against […] MT4 cells; assay type: functional; details: Homo sapiens
[19] = tested on: Human immunodeficiency virus 1; assay: Antiviral activity against HIV 1 assessed as log 10 reduction in viral load; assay type: functional

Structure (SMILES): Cc1[nH]c2ccccc2c1CC(=O)N[C@@H](Cc1ccccc1)C(=O)N(C)c1ccccc1
EC50 [1]: 570 nM

Structure (SMILES): O=C(O)c1ccc(-c2nc(-c3ccccc3)c(-c3ccccc3)[nH]2)cc1
IC50 [2]: 22500 nM

Structure (SMILES): CCc1cc(-c2ccc(C(F)(F)F)o2)n(-c2ccc3c(c2)nc(-c2cc(C(=O)N4CCCC4)ccc2O)n3Cc2ccc(=O)[nH]c2)n1
EC50 [3]: 62 nM
IC50 [4]: 61 nM

Structure (SMILES): O=C1NC(c2cccnc2)c2c(-c3ccccc3)n[nH]c21 (stereo not given)
EC50 [5]: 1400 nM
EC50 [6]: 1800 nM

Structure (SMILES): COc1ccc(N(C)C(=O)[C@H](Cc2cc(F)cc(F)c2)NC(=O)c2cccc(-c3cn(-c4ccc([N+](=O)[O-])cc4)nn3)c2)cc1
CC50 [12]: > 35500 nM
EC50 [13]: 2130 nM

Structure (SMILES): CCCCC[C@](C)(NC(=O)[C@H](CC(C)C)NC(=O)[C@H](CC(C)C)NC(=O)[C@H](CC(=O)O)NC(=O)[C@](C)(CCCCC)NC(=O)[C@H](Cc1ccccc1)NC(=O)[C@@H](NC(=O)[C@@H](N)[C@@H](C)CC)[C@@H](C)O)C(=O)N[C@@H](Cc1ccc(O)cc1)C(=O)N[C@@H](Cc1ccc(O)cc1)C(=O)NCC(=O)N1CCC[C@H]1C(=O)O
IC50 [14]: 4000 nM

Structure (SMILES): O=c1c2ccccc2[se]n1-c1ccccc1 [EBSELEN]
EC50 [15]: 4250 nM
IC50 [16]: 46.7 nM

Further lines, with some results ahead:

IC50 [7]: 57000 nM
Structure (SMILES): O=C(O)c1ccc(-c2ccc3c(c2)nc(-c2c[nH]nc2-c2cccc(Cl)c2)n3CCCn2ccnc2)cc1

EC50 [8]: 0.025 nM
Structure (SMILES): Cn1nc(NS(C)(=O)=O)c2cccc(-n3c([C@H](Cc4cc(F)cc(F)c4)NC(=O)Cn4nc(C(F)F)c5c4C(F)(F)[C@H]4C[C@@H]54)nc4cc(-c5ncccn5)ccc4c3=O)c21

half-life [9]: 7.2 h
EC50 [10]: 0.14 nM
EC50 [11]: 0.14 nM
Structure (SMILES): CC(C)(C#Cc1ccc(-c2ccc(Cl)c3c(NS(=O)(=O)C4CC4)nn(CC(F)(F)F)c23)c([C@H](Cc2cc(F)cc(F)c2)NC(=O)Cn2nc(C(F)(F)F)c3c2C(F)(F)[C@@H]2C[C@H]32)n1)S(C)(=O)=O

IC50 [2]: 33300 nM
Structure (SMILES): O=C(O)c1ccc(-c2nc(-c3ccc4oc5ccc(-c6nc(-c7ccc(C(=O)O)cc7)[nH]c6-c6ccccc6)cc5c4c3)c(-c3ccccc3)[nH]2)cc1

EC50 [17]: 0.1 nM
Structure (SMILES): CC(C)(C#Cc1ccc(-c2ccc(Cl)c3c(NS(C)(=O)=O)nn(CC(F)(F)F)c23)c([C@H](Cc2cc(F)cc(F)c2)NC(=O)Cn2nc(C(F)(F)F)c3c2C(F)(F)[C@@H]2C[C@H]32)n1)S(C)(=O)=O [LENACAPAVIR]
CC50 [18]: 27000 nM
log(activity) [19]: 0.5
